Like-named read-outs stand apart in the source and are kept apart here.
Key:
[1] = system: rat model of traumatic brain injury; parameters: method as in Massa et al., 2010; conditions: ref Massa et al., 2010; cited from earlier work
[2] = system: Het mice; parameters: method as in Li et al., 2017; conditions: long-term treatment of Het mice; ref Li et al., 2017; cited from earlier work
[3] = system: heterozygous (Het) female Mecp2 mutant mice; assay: Phenotype severity score; type: in vivo, mouse; conditions: for group average phenotype severity score: 5 mg/kg q72 hrs
Procedure: Group Pre‐Treatment Week 2 Week 4 Week 6 Week 8
Table S3. Group average bi-weekly phenotype severity scores after repeated dosing with PTX-BD4-3 (5 mg/kg, q72 hrs). Animals were assigned aggregate scores of phenotypic severity based on visual assessments of mobility, hind limb clasping, gait analysis, tremors, respiration and overall physical condition (scoring range = 0-12; Guy et al., 2007). The phenotype severity scores of Het animals […]
(also on this page, place not known: tr eatment Disease Models & Mechanisms: doi:10.1242/dmm.044685: Supplementary information Disease Models & Mechanisms • Supplementary information) […]

[4] = system: Cl- channel (GABA-gated); assay: Cerep ExpresSProfile radioligand binding; conditions: 10 micromolar; antagonist radioligand
Procedure: (§1) To evaluate the relative binding specificity of LM22A-4 ([Massa et al., 2010]) and PTX-BD4-3, binding to a broad range of 55 pharmacologically relevant receptors, including numerous neurotransmitter and G-protein coupled receptors was assessed using standard radioligand competition binding assays (ExpressSProfile) performed by Cerep, Inc. (Seattle, WA, USA). In addition, ADME-Tox analysis was performed by Cerep, Inc. All experimental conditions are described on the Cerep website (www.cerep.fr). […]
(§2) Table S1. In vitro binding assays. An ExpresSProfile screen of PTX-BD4-3 binding to a panel of pharmacologically relevant receptors was conducted by Cerep, Inc.
(§3) (Eurofins Panlabs, MO). The results are expressed as percent inhibition of control specific binding obtained in the presence of 10 micromolar PTX-BD4-3. In this assay, values below 50% indicate no specific binding of PTX-BD4-3. The assay was negative for PTX-BD4-3 binding to all of the 55 receptors in the screen.
(§4) (also on this page, place not known: 2B 5‐HT 3 5‐HT 5a 5‐HT 6 5‐HT 7 (agonis t VPAC 1 V 1 Ca 2+ K V SK Ca Na + Cl ‐ 5‐HT Disease Models & Mechanisms: doi:10.1242/dmm.044685: Supplementary information Disease Models & Mechanisms • Supplementary information)

[5] = system: α2 (non-selective); assay: Cerep ExpresSProfile radioligand binding; conditions: 10 micromolar; antagonist radioligand
Procedure: as §1, §2, §3, §4

[6] = biological target: T1, NOP (ORL1) (h) (Homo sapiens, UniProt P41146); assay: Cerep ExpresSProfile radioligand binding; conditions: 10 micromolar, agonist radioligand
T1 construct: purchased Cerep (ExpresSProfile)
Procedure: as §1, §2, §3, §4

[7] = biological target: T2, NTS1 (NT1) (h) (Homo sapiens, UniProt P30989); assay: Cerep ExpresSProfile radioligand binding; conditions: 10 micromolar, agonist radioligand
T2 construct: purchased Cerep (ExpresSProfile)
Procedure: as §1, §2, §3, §4

[8] = biological target: T3, M1 (h) (Homo sapiens, UniProt P11229); assay: Cerep ExpresSProfile radioligand binding; conditions: 10 micromolar, antagonist radioligand
T3 construct: purchased Cerep (ExpresSProfile)
T3 sequence (P11229 1-460): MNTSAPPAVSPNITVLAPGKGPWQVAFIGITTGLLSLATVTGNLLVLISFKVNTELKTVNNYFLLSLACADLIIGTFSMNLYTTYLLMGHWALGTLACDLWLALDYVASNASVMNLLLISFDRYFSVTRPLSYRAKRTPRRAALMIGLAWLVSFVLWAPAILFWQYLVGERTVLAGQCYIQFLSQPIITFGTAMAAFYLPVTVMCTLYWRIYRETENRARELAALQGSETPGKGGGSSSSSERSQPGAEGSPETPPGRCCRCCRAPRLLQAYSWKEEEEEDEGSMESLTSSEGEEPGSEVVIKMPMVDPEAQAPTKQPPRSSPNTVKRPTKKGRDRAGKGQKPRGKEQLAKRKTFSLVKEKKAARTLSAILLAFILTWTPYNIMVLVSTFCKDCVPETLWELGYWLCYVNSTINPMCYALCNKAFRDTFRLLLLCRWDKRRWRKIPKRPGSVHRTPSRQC
Procedure: as §1, §2, §3, §4

[9] = biological target: T4, 5-HT2B (h) (Homo sapiens, UniProt P41595); assay: Cerep ExpresSProfile radioligand binding; conditions: 10 micromolar, agonist radioligand
T4 construct: Cerep, Inc. (contract screen)
Procedure: as §1, §2, §3, §4

[10] = biological target: T5, 5-HT transporter (h) (Homo sapiens, UniProt P31645); assay: Cerep ExpresSProfile radioligand binding; conditions: 10 micromolar, antagonist radioligand
T5 construct: Cerep, Inc. (contract screen)
Procedure: as §1, §2, §3, §4

[11] = biological target: T6, M2 (h) (Homo sapiens, UniProt P08172); assay: Cerep ExpresSProfile radioligand binding; conditions: 10 micromolar; antagonist radioligand; read-out: % Inhibition of Control Specific Binding 1st
T6 construct: purchased Cerep (ExpresSProfile)
Procedure: as §1, §2, §3, §4

[12] = biological target: T7, NK3 (h) (Homo sapiens, UniProt P29371); assay: Cerep ExpresSProfile radioligand binding; conditions: 10 micromolar; antagonist radioligand; read-out: % Inhibition of Control Specific Binding 2nd
T7 construct: purchased Cerep (ExpresSProfile)
Procedure: as §1, §2, §3, §4

[13] = system: α1 (non-selective); assay: Cerep ExpresSProfile radioligand binding; conditions: 10 micromolar; antagonist radioligand
Procedure: as §1, §2, §3, §4

[14] = biological target: T8, κ (KOP) (Rattus norvegicus, UniProt P34975); assay: Cerep ExpresSProfile radioligand binding; conditions: 10 micromolar; agonist radioligand; read-out: % Inhibition of Control Specific Binding 1st
T8 construct: purchased Cerep (ExpresSProfile)
Procedure: as §1, §2, §3, §4

[15] = system: Ca2+ channel (L, verapamil site) (phenylalkylamine); assay: Cerep ExpresSProfile radioligand binding; conditions: 10 micromolar; antagonist radioligand
Procedure: as §1, §2, §3, §4

[16] = biological target: T9, norepinephrine transporter (h) (Homo sapiens, UniProt P23975); assay: Cerep ExpresSProfile radioligand binding; conditions: 10 micromolar, antagonist radioligand
T9 construct: Cerep, Inc. (contract screen)
Procedure: as §1, §2, §3, §4

[17] = read-out: % Inhibition of Control Specific Binding 2nd
[18] = read-out: % Inhibition of Control Specific Binding Mean
[19] = read-out: % Inhibition of Control Specific Binding 1st

T2 sequence (P30989 whole entry): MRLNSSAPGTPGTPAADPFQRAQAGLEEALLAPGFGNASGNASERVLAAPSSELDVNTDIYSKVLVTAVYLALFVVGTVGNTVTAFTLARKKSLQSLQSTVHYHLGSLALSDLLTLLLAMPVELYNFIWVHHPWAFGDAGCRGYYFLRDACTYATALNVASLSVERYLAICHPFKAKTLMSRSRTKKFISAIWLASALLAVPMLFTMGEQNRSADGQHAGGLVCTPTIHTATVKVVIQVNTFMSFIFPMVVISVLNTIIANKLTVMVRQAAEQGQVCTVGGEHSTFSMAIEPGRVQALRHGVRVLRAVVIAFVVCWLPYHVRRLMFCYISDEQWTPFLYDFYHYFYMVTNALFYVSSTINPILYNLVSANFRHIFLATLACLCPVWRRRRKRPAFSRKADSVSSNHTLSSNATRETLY
T5 sequence (P31645 whole entry): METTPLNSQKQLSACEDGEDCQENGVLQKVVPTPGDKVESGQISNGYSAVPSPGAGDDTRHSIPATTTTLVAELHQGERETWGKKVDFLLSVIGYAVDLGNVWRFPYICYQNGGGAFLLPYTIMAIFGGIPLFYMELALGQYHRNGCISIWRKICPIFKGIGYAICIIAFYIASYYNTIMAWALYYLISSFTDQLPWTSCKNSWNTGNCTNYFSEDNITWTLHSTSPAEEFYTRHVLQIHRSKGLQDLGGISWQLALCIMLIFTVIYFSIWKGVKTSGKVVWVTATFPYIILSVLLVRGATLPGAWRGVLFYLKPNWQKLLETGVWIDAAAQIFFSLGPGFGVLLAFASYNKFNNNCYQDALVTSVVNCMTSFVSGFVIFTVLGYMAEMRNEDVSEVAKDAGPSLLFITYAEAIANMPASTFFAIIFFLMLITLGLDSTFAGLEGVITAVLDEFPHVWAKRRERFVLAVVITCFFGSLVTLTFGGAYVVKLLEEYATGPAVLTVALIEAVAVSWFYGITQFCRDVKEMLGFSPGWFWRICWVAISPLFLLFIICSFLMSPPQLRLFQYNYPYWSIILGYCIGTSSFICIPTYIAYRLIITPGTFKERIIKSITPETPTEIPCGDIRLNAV
T9 sequence (P23975 whole entry): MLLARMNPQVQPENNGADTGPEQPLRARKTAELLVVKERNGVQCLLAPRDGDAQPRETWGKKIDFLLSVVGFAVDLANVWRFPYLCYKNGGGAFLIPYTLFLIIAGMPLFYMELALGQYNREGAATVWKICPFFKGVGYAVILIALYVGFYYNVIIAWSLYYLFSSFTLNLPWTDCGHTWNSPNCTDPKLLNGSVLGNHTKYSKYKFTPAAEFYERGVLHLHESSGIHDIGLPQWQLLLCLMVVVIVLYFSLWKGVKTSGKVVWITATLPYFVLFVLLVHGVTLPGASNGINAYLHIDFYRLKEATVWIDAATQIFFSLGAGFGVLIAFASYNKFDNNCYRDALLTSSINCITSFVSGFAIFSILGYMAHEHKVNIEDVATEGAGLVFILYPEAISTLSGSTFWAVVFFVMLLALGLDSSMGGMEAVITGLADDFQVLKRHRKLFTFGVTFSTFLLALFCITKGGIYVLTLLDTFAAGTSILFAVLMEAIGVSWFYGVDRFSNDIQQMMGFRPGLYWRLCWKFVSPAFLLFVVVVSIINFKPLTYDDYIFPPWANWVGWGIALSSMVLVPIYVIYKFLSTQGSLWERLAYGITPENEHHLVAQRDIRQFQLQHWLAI
T1 sequence (P41146 whole entry): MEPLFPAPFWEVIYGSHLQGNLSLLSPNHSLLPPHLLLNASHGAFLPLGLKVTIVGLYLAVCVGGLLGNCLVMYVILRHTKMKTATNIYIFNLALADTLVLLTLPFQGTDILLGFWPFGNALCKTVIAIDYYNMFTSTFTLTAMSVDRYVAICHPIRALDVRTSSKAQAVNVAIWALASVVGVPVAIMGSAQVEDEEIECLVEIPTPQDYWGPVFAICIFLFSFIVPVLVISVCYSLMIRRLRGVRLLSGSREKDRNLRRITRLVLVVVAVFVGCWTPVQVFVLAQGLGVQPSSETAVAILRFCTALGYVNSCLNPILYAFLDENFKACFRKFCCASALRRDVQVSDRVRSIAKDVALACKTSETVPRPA
T4 sequence (P41595 whole entry): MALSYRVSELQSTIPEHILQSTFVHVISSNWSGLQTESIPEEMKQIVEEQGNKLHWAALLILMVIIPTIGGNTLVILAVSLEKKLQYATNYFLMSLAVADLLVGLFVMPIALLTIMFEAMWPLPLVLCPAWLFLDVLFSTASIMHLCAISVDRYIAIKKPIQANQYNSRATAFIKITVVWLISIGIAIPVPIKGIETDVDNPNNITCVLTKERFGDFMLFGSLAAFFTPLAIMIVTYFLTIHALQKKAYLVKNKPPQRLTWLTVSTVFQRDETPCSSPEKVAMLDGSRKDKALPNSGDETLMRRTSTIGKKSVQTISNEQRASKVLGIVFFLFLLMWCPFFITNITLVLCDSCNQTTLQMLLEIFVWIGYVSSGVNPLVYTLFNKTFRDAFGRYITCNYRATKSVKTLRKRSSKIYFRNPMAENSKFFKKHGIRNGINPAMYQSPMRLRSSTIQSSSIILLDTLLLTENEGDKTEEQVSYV
T7 sequence (P29371 whole entry): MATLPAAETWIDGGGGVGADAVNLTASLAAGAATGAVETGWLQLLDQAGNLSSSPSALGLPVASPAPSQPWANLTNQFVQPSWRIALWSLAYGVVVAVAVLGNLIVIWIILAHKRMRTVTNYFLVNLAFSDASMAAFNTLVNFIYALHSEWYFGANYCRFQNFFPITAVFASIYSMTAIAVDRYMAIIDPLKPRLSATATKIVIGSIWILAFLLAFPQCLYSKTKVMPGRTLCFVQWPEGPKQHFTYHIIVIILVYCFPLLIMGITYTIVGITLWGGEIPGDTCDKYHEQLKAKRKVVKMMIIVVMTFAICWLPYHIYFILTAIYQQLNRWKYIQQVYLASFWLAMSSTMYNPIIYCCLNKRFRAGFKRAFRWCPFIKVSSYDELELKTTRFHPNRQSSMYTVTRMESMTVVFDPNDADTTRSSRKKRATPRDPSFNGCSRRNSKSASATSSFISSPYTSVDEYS
T8 sequence (P34975 whole entry): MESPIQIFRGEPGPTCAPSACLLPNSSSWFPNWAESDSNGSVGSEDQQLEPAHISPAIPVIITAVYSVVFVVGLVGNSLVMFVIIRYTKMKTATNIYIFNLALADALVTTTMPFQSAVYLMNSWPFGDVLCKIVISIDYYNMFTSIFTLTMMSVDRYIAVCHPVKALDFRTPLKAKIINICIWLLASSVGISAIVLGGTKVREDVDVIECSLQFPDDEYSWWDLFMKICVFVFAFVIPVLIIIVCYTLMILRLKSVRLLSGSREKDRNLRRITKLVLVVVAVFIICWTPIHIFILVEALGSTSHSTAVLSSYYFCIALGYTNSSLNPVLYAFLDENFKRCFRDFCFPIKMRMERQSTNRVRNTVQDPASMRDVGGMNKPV
T6 sequence (P08172 whole entry): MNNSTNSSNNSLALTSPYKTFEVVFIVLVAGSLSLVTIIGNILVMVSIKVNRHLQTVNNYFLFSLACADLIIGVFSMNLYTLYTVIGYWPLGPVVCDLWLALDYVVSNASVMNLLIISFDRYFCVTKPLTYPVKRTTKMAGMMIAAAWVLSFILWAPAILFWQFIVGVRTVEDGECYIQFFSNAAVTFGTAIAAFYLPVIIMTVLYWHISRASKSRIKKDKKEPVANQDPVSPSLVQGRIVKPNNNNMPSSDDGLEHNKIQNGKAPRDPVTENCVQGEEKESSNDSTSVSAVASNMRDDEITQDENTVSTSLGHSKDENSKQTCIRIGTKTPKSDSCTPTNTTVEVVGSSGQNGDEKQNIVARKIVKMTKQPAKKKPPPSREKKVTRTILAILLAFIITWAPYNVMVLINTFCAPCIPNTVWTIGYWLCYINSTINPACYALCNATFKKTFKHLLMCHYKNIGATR

For `O=C(NCCO)c1cc(C(=O)NCCO)cc(C(=O)NCCO)c1` [LM22A-4, N,N′,N′′-tris(2-hydroxyethyl)-1,3,5-benzenetricarboxamide, reference compound], the motor learning [1] is given as “improve motor learning” and the “behavioral learning in a spatial memory task” value [2] is given as “improves behavioral learning”.

For `COCCN(C)C(=O)c1cc(C(=O)N(C)CCOC)cc(C(=O)N(C)CCOC)c1` [PTX-BD4-3, benzene-1,3,5-tricarboxylic acid tris-[(2-methoxy-ethyl)-methyl-amide]], the “change of global phenotypic severity scores over the time course” value ([3]; 5 mg/kg q72 h, pre-treatment vs 8 weeks) was “did not increase significantly”, the “group average phenotype severity score” value ([3]; Week 2, scoring range 0-12, pre-treatment 2.73) was 3.46 and the “group average phenotype severity score” value ([3]; Week 4, scoring range 0-12) was 3.66. For the same compound, the “group average phenotype severity score” value ([3]; Week 6, scoring range 0-12) was 4.33, the “group average phenotype severity score” value ([3]; Week 8, scoring range 0-12) was 3.66 and the “% Inhibition of Control Specific Binding 1st” value [4] was 2.7%. The “% Inhibition of Control Specific Binding 1st” value [5] was 1.8%, the “% Inhibition of Control Specific Binding 2nd” value [5] was 4.7% and the “% Inhibition of Control Specific Binding Mean” value [5] was 3.2%. For the same compound, the inhibition at 10 µM [6, 17] was 6.3%, the inhibition at 10 µM [6, 18] was 0.1% and the inhibition at 10 µM [7, 19] was 11.2%. It also gave an inhibition at 10 µM [7, 17] of 2.6%, an inhibition at 10 µM [7, 18] of 6.9% and an inhibition at 10 µM [8, 19] of 5%. For the same compound, the inhibition at 10 µM [8, 17] was 15%, the inhibition at 10 µM [8, 18] was 10% and the inhibition at 10 µM [9, 19] was 12.6%. For the same compound, the inhibition at 10 µM [9, 18] was 3.5%, the inhibition at 10 µM [10, 19] was 16.3% and the inhibition at 10 µM [10, 17] was 5.5%. The inhibition at 10 µM [10, 18] was 10.9%, the inhibition at 10 µM [11] was 6.3% and the inhibition at 10 µM [12] was 0.4%. The “% Inhibition of Control Specific Binding 1st” value [13] was 0.9%, the inhibition at 10 µM [14] was 0.9% and the “% Inhibition of Control Specific Binding 1st” value [15] was 0%. It also gave an inhibition at 10 µM [16, 19] of 5.1%, an inhibition at 10 µM [16, 17] of 1.1% and an inhibition at 10 µM [16, 18] of 3.1%.

Reference: PMC7710018, “Restoration of motor learning in a mouse model of Rett syndrome following long-term treatment with a novel small-molecule activator of TrkB” (Disease Models & Mechanisms, 2020)
